# According to ChEMBL document CHEMBL1201862, “PubChem BioAssay data set” (2004):
# Calls of active or inactive are those of the source.
# How the values were obtained:
# [1] = target: Heat shock protein HSP 90-alpha (Homo sapiens, UniProt P07900); assay: Luminescence-based dose response biochemical high throughput screening assay for inhibitors of the Heat Shock Protein 90 (HSP90). [Related pubchem assays: 1831 (Summary AID.), 1846 (Confirmation screen.), 1789 (Primary screen.)]
# [2] = target: T1, RNA-binding protein pos-1 (Caenorhabditis elegans, UniProt G5EF15); assay: inhibitors of POS-1/mex-3 RNA binding, dose response, biochemical, fluorescence polarization (AID 1964);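 further: purified POS-1 fused to maltose binding protein made in E. coli; potency of compounds blocking POS-1 binding to fluorescent RNA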
# T1 sequence (G5EF15 whole entry): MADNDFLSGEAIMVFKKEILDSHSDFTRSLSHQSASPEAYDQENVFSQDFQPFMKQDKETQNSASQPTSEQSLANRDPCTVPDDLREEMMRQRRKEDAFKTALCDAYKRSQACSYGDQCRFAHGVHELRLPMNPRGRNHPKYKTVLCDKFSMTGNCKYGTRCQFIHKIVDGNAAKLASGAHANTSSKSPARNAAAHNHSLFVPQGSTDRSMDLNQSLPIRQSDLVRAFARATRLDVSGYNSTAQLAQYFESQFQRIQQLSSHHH
# [3] = target: T2, Zinc finger protein mex-5 (Caenorhabditis elegans, UniProt Q9XUB2); assay: MEX-5/TCR-2 RNA interaction inhibitors, dose response, biochemical, C. elegans, fluorescence polarization (AID 1960)
# T2 sequence (Q9XUB2 whole entry): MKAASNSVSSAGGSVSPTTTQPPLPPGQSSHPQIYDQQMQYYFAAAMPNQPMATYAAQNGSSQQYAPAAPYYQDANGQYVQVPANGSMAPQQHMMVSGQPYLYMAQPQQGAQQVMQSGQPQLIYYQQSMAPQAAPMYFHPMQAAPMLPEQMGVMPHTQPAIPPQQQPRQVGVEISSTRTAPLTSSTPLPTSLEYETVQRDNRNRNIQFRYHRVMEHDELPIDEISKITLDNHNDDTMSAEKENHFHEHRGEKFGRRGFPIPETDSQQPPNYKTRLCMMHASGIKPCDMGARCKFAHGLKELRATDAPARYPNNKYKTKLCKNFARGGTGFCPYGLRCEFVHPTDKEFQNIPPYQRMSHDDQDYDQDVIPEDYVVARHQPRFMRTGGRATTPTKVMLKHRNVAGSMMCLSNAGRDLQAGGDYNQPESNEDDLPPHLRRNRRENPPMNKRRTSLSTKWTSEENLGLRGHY
# Estrogen receptor beta = Estrogen receptor beta (Homo sapiens, UniProt Q92731);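 further: recombinant ER-beta bound to coactivator SRC1 peptide in presence of estradiol agonist; inhibitors block coactivator peptide binding and lower the FRET signal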
# [4] = target: Bifunctional protein GlmU (Mycobacterium tuberculosis, UniProt P9WMN3); assay: Inhibitors of Mycobacterial Glucosamine-1-phosphate acetyl transferase (GlmU). Secondary screen.; design: species or system Mycobacterium tuberculosis H37Rv
# Steroidogenic factor 1 = Steroidogenic factor 1 (Homo sapiens, UniProt Q13285); assay: Counterscreen for inverse agonists of the liver receptor homolog-1 (LRH-1; NR5A2): Luminescence-based cell-based high throughput dose response assay to identify inverse agonists of the Steroidogenic Factor 1 Nuclear Receptor (SF1; NR5A1).; assay type: functional
# [5] = StAR promoter reporter inhibition counter-screen, dose response, counter-screen for LRH-1 inverse agonist project, cell-based, luminescence, luciferase reporter (AID 651969); assay type: functional
# [6] = target: Nuclear receptor subfamily 5 group A member 2 (Homo sapiens, UniProt O00482); assay type: functional, cell-based;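 further: HEK293T cells transfected with LRH-1 and a StAR promoter luciferase reporter; potency for inhibitors that lower LRH-1 driven reporter light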
# [7] = target: Mitogen-activated protein kinase 10 (Homo sapiens, UniProt P53779); assay: Dose response biochemical screening assay for inhibitors of c-Jun N-Terminal Kinase 3 (JNK3). [Related pubchem assays: 746 ]
# [8] = target: Sphingosine 1-phosphate receptor 2 (Homo sapiens, UniProt O95136); assay: Dose Response Cell Based Assay for Agonists of the S1P2 Receptor. [Related pubchem assays: 729, 736, 843 ]; assay type: functional
# [9] = target: T3, Calpain-2 catalytic subunit (Sus scrofa, UniProt P43367); assay: pig calpain II inhibitor potency, dose response, biochemical, fluorogenic peptide substrate (AID 1420); assay type: functional
# T3 sequence (P43367 whole entry): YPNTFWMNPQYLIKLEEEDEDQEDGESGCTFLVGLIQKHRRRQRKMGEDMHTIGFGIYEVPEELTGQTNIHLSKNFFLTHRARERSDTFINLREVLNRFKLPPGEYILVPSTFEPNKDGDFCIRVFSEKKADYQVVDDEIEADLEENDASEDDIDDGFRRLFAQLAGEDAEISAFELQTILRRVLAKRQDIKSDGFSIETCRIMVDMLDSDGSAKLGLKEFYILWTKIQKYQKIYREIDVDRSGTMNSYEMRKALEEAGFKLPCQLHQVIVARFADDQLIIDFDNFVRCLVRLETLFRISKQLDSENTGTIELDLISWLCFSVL
# Caspase-3 = target: T4, Caspase-3 (Homo sapiens, UniProt P42574); assay type: functional;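 further: Dose-response selectivity test against caspase-3 for candidate inhibitors of sentrin-specific proteases (SENPs)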
# T4 sequence (P42574 whole entry): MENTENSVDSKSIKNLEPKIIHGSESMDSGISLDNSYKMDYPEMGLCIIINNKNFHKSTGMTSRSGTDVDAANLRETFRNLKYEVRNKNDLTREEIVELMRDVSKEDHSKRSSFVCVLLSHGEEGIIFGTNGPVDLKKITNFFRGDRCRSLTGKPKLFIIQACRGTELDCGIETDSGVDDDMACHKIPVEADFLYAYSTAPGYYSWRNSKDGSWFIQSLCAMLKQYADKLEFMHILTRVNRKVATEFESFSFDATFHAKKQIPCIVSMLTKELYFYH
# [10] = target: T5, Sentrin-specific protease 6 (Homo sapiens, UniProt Q9GZR1); assay type: functional;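 further: Luminescence-based dose-response confirmatory assay of SENP6 inhibition, following up an ultra-high-throughput screen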
# T5 sequence (Q9GZR1 whole entry): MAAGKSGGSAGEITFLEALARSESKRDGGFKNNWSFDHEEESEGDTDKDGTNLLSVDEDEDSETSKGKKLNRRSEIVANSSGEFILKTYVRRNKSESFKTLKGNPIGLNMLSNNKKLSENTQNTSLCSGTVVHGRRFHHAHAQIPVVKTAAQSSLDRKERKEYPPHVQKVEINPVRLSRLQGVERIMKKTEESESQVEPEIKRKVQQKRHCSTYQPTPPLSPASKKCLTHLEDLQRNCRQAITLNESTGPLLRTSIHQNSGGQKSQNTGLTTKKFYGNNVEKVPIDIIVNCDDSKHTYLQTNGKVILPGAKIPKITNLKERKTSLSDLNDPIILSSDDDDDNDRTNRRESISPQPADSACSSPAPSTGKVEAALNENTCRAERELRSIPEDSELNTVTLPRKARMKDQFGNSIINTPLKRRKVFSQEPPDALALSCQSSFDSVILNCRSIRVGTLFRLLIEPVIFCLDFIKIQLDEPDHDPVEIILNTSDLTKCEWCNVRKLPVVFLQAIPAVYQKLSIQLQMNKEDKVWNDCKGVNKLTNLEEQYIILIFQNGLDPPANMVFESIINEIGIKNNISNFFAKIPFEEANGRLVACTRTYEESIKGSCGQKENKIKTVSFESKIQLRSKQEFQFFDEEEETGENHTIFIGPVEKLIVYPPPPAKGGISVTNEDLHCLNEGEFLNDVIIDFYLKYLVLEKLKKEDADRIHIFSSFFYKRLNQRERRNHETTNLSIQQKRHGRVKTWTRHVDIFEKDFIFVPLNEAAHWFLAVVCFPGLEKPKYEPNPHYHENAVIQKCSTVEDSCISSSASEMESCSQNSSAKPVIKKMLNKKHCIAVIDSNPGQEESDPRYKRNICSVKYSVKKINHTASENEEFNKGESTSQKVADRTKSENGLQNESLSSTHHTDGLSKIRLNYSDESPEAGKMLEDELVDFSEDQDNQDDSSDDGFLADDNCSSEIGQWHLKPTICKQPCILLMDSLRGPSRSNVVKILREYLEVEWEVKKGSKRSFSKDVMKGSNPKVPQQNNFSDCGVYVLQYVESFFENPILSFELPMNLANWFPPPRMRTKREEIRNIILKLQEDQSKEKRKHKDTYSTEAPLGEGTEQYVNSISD
# [11] = target: T6, Sentrin-specific protease 8 (Homo sapiens, UniProt Q96LD8); assay type: functional;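 further: luminescence read-out of SENP8 inhibition, dose-response confirmation following an ultra-high-throughput screen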
# T6 sequence (Q96LD8 whole entry): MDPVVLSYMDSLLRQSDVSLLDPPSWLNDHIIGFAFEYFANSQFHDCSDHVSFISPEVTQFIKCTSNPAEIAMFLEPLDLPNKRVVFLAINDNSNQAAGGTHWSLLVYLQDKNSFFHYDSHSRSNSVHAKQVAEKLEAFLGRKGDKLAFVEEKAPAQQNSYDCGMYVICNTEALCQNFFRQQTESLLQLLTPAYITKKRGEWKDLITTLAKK
# [12] = target: T7, Sentrin-specific protease 7 (Homo sapiens, UniProt Q9BQF6); assay type: functional;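 further: Luminescence-based dose-response confirmation of ultra-high-throughput screening hits, measuring inhibition of SENP7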
# T7 sequence (Q9BQF6 whole entry): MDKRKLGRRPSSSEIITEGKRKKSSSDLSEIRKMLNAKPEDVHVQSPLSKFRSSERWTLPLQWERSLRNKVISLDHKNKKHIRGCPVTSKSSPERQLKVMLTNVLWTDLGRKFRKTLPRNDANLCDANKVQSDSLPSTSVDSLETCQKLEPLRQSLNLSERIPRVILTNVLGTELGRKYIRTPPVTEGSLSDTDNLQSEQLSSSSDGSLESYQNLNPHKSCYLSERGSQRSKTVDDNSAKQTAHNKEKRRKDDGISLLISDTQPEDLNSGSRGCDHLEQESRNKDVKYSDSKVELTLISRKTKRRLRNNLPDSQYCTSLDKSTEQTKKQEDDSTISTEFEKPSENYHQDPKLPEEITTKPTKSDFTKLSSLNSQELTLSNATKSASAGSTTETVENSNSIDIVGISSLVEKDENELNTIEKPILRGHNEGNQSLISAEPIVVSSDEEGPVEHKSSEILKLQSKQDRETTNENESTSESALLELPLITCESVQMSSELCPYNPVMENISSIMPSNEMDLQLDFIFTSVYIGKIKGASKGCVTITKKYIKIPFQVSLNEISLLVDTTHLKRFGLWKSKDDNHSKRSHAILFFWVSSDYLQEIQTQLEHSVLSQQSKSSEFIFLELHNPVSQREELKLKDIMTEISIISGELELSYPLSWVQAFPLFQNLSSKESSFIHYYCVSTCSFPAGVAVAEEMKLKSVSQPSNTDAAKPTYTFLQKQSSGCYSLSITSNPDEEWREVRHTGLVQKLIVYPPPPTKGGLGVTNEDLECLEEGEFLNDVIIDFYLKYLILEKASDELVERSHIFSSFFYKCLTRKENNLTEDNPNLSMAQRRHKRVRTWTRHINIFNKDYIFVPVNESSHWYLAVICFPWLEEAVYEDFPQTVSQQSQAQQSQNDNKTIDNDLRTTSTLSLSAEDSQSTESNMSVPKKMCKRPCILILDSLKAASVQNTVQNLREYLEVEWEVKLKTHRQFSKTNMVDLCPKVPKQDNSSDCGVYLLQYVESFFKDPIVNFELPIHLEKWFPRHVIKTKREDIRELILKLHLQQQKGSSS
# [13] = P. falciparum Dd2 growth inhibitors, dose response, SYBR Green, dry powder samples (AID 1159566); assay type: functional, cell-based;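 further: potency for growth inhibition with lower SYBR green DNA signal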
# [14] = HepG2 cell cytotoxicity, dose response, cytotoxicity control, plate reader, dry powder samples (AID 1159569); assay type: functional, cell-based;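 further: inhibitor potency with signal falling toward the positive control level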
# [15] = P. falciparum 3D7-ScDHODH growth inhibitors, dose response, SYBR Green, dry powder samples (AID 1159570); assay type: functional, cell-based;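 further: parasite growth measured after 72 hours of compound exposure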
# [16] = P. falciparum Dd2 growth inhibitors, dose response, SYBR Green, cherry-picked samples (AID 1159567); assay type: functional, cell-based
# [17] = P. falciparum ATP4 D1247Y mutant growth inhibitors, dose response, NITD609-resistant line, SYBR Green, dry powder (AID 1159571); assay type: functional, cell-based;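 further: parasites synchronized at ring stage by sorbitol before testing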
# [18] = cytotoxicity toward HT-29 cells – cell-based, CellTiter-Glo luminescence, IC50, dose response (AID 1117330); assay type: functional
# [19] = CellTiter-Glo luminescent dose response of DLD-1 viability loss (AID 1117352); assay type: functional
# [20] = Concentration-dependent survival of SW480 colon cancer line, luminescence detection with CellTiter-Glo, half-maximal inhibitory concentration (AID 1117338); assay type: functional
# [21] = cytotoxicity toward HCT116 cells – cell-based, CellTiter-Glo luminescence, IC50, dose response (AID 1117332); assay type: functional; conditions: HCT-116
# [22] = HCT116 cell viability decrease, GSK3B pretreatment – CellTiter-Glo, IC50, dose response (AID 1117339); assay type: functional; conditions: HCT-116
# [23] = RKO cell viability reduction, dose response, CellTiter-Glo luminescence (AID 1117322); assay type: functional
# [24] = SNU-C1 cell viability reduction, dose response, CellTiter-Glo luminescence (AID 1117323); assay type: functional, cell-based
# [25] = cytotoxicity toward Colo320 cells – cell-based, CellTiter-Glo luminescence, IC50, dose response (AID 1117334); assay type: functional; conditions: COLO 320
# Bifunctional protein GlmU, sequence (P9WMN3 whole entry): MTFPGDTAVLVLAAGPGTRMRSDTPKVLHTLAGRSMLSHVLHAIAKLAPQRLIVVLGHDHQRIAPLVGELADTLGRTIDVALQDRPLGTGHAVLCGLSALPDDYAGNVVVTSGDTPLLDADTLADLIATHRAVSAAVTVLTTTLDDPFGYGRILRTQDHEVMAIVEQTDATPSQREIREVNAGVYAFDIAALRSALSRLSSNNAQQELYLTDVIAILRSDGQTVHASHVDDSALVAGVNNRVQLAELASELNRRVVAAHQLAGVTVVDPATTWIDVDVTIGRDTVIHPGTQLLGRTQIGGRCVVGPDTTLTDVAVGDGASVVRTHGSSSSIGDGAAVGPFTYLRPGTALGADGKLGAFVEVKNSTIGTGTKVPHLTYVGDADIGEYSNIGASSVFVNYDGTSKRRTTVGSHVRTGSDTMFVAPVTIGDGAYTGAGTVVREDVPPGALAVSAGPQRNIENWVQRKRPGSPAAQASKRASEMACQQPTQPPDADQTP
# Sphingosine 1-phosphate receptor 2, sequence (O95136 whole entry): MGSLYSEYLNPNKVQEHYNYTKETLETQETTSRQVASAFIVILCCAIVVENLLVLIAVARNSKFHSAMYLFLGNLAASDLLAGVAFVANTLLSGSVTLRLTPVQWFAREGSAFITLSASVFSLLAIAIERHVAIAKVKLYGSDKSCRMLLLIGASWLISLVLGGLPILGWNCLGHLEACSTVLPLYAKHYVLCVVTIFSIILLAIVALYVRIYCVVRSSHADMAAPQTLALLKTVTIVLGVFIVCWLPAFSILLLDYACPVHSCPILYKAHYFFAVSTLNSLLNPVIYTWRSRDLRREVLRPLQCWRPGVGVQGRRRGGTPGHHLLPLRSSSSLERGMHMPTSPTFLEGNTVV
# Mitogen-activated protein kinase 10, sequence (P53779 whole entry): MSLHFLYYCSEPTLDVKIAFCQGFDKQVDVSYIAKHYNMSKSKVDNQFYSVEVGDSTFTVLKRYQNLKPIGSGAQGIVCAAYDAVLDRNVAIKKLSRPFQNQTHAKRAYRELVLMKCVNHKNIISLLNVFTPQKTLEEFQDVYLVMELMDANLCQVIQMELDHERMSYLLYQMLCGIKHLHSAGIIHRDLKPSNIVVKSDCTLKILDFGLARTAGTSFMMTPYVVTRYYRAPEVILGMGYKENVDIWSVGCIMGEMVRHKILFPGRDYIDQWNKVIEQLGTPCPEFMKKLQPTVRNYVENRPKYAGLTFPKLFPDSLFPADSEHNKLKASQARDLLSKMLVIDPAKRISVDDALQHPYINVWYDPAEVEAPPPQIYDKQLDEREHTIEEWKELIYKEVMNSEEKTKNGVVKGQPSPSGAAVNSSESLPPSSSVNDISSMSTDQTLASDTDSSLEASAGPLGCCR
# Steroidogenic factor 1, sequence (Q13285 whole entry): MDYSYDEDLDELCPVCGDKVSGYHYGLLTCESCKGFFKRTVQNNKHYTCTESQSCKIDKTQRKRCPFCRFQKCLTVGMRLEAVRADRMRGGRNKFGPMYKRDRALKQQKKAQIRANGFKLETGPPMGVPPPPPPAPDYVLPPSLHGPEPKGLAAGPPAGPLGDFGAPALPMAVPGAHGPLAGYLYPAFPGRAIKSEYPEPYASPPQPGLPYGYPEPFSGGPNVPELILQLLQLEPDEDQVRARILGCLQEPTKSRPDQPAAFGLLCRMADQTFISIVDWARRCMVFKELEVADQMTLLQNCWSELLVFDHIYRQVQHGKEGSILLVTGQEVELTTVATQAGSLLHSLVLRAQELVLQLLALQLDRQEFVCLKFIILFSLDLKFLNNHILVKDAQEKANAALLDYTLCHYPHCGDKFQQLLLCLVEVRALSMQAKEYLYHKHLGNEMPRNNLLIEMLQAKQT
# Nuclear receptor subfamily 5 group A member 2, sequence (O00482 whole entry): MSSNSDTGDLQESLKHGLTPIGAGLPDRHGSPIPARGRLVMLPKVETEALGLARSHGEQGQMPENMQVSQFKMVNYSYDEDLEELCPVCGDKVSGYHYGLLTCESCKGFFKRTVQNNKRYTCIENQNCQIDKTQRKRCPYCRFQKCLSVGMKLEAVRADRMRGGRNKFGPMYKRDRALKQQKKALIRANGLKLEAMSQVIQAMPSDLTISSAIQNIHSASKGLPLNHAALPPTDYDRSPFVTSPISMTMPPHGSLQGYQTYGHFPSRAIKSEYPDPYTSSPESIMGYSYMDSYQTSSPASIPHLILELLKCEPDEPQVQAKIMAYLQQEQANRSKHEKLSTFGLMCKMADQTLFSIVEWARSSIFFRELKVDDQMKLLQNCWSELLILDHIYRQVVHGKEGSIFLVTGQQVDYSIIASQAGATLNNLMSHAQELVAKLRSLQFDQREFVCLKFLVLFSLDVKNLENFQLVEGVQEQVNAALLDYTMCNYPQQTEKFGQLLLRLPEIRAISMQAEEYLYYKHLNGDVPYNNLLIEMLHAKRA
# Estrogen receptor beta, sequence (Q92731 whole entry): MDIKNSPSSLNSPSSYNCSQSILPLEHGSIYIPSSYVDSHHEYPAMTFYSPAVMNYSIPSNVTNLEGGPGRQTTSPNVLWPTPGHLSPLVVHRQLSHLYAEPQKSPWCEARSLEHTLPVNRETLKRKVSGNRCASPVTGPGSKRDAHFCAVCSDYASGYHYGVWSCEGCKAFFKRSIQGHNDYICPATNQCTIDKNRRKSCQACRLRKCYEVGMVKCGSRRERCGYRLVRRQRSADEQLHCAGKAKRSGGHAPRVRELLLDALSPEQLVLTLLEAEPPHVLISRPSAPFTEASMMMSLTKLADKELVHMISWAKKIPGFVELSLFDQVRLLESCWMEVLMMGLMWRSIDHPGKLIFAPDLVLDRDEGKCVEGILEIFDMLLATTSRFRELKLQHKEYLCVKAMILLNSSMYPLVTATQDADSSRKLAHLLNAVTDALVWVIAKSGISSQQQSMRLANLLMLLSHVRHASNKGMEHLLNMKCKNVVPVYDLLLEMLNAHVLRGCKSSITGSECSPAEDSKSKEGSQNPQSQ
compound,measurement,setting,value
COCC(C)n1c(C)cc(C(=O)Cn2nc(C(=O)O)c3ccccc3c2=O)c1C (configuration not stated),IC50,[1],11.4 µM (not active)
O=c1oc2ccc(Cl)cc2nc1/C=C(\O)c1cccs1,EC50,[2],230 µM (active)
same,EC50,[3],153 µM (active)
same,IC50,[1],2.2 µM (active)
Cc1c(Cl)cccc1NC(=O)CC1SCCNC1=O (configuration not stated),IC50,Estrogen receptor beta,> 50 µM (not active)
O=C(O)C1C2C=CC(CC2)C1C(=O)O (configuration not stated),IC50,[4],114 µM (active)
CCn1c(SCC(=O)Nc2ccc(Cl)cc2)nnc1C1CC1,IC50,Steroidogenic factor 1,6.13 µM (active)
same,IC50,[5],35.9 µM (inactive)
same,IC50,[6],35.9 µM (inactive)
same,IC50,[7],> 93.1 µM (not active)
C=CCn1c(N)cc(=O)nc1SCC(=O)Nc1ccccc1,EC50,[8],> 50 µM (not active)
O=C(O)c1cc(C(=O)O)cc(-c2ccc(/C=c3/sc4nc5ccccc5n4c3=O)o2)c1,IC50,[4],34.1 µM (active)
same,IC50,[9],22 µM (not active)
C/C(=N\Cc1ccco1)c1c(C)nn(-c2nc3ccccc3s2)c1O,IC50,Caspase-3,3.72 µM (active)
same,IC50,[10],9.47 µM (active)
same,IC50,[11],11.5 µM (active)
same,IC50,[12],3.48 µM (active)
same,IC50,[7],> 93.1 µM (not active)
COc1cc2c(cc1OC)C1=C(C#N)CC/C(=N\C(=O)c3ccc(Cl)cc3)N1CC2,EC50,[8],1.61 µM (active)
O=C(c1ccc(F)cc1)N1CC(=O)N2[C@H](CO)[C@H](c3ccc(-c4cccnc4)cc3)[C@H]2C1,AC50,[13],0.964 µM (active)
same,AC50,[14],> 100 µM (inactive)
same,AC50,[15],1.2 µM (active)
same,AC50,[16],0.821 µM (active)
same,AC50,[17],1.27 µM (active)
O=C1NCCN1CCN1CCC(c2cn(-c3ccc(F)cc3)c3ccc(Cl)cc23)CC1 [SERTINDOLE],IC50,[18],2.86 µM (active)
same,IC50,[19],5.62 µM (inactive)
same,IC50,[20],2.81 µM (active)
same,IC50,[21],2.16 µM (active)
same,IC50,[22],3.52 µM (active)
same,IC50,[23],2.6 µM (active)
same,IC50,[24],1.43 µM (active)
same,IC50,[25],3.7 µM (active)
